Results taken from the supplement of paper PMC11061612.

What was measured:
[1] = system: BB49-HNC (Head and Neck Carcinoma); assay: Bliss excess, mean over the matrix (fraction); higher = more synergy
How it was run: (§1)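 After 24 hours at 37°C and 5% CO2 in 1536-well plates, cells in DMEM/F12 or RPMI plus 10% FBS received two-drug dose matrices for 72 hours. Viability came from CellTiter-Glo 2.0 luminescence and was scaled as inhibition, anchored at 0 by vehicle wells and at 1 by blank wells. Combination Emax is taken as the second-highest inhibition in the matrix, and Bliss excess as the observed combination effect less EA + EB − EA·EB, with EA and EB the single-agent effects.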

[2] = system: NB(TU)1-10 (Neuroblastoma); assay: as above
How it was run: as §1

[3] = system: NCI-H211 (Small Cell Lung Carcinoma); assay: as above
How it was run: as §1

[4] = system: BB49-HNC (Head and Neck Carcinoma); assay: combination Emax (second highest fraction inhibited in the dose matrix, 72 h); higher = more inhibition; extreme values may be limits of the assay
How it was run: as §1

[5] = system: IGR-1 (Melanoma); assay: as above
How it was run: as §1

[6] = system: IHH-4 (Thyroid Gland Carcinoma); assay: as above
How it was run: as §1

[7] = system: NB(TU)1-10 (Neuroblastoma); assay: as above
How it was run: as §1

[8] = system: NCI-H211 (Small Cell Lung Carcinoma); assay: as above
How it was run: as §1
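Wherever Bliss excess, mean over the matrix is given: after 72 h of two-drug dosing.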

| SMILES | Bliss excess [1] | Bliss excess [2] | Bliss excess [3] | combination Emax [4] | combination Emax [5] | combination Emax [6] | combination Emax [7] | combination Emax [8] |
| --- | --- | --- | --- | --- | --- | --- | --- | --- |
| CN(C)CCCOc1ccc(-c2ccc3ncc4c(c3c2)n(C2CCOCC2)c(=O)n4C)cn1 [AZD0156] + O=C(c1cc(Cc2n[nH]c(=O)c3ccccc23)ccc1F)N1CCN(C(=O)C2CC2)CC1 [Olaparib] (first compound max 3 µM, partner max 3 µM) | 0.165 | -0.037 | 0.0397 | 0.598 | 0.209 | 0.516 | 0.356 | 0.598 |
| C=CCn1c(=O)c2cnc(Nc3ccc(N4CCN(C)CC4)cc3)nc2n1-c1cccc(C(C)(C)O)n1 [AZD1775] + C1CN(CCC1(C(=O)N[C@@H](CCO)C2=CC=C(C=C2)Cl)N)C3=NC=NC4=C3C=CN4 [Capivasertib] (first compound max 3 µM, partner max 3 µM) | -0.0204 | -0.0584 | -0.0643 | 0.936 | 0.482 | 0.91 | 0.583 | 0.901 |
| CN(C)CCCOc1ccc(-c2ccc3ncc4c(c3c2)n(C2CCOCC2)c(=O)n4C)cn1 [AZD0156] + C[C@@H]1COCCN1C2=NC(=NC(=C2)C3(CC3)[S@](=N)(=O)C)C4=C5C=CNC5=NC=C4 [AZD6738] (first compound max 1 µM, 7x7, partner max 10 µM) | – | -0.0026 | – | – | 0.523 | 0.907 | 0.798 | – |
| COc1cccc(OCCCN)c1-c1cc(Nc2cnc(C#N)cn2)n[nH]1 [Prexasertib] + O=C(c1cc(Cc2n[nH]c(=O)c3ccccc23)ccc1F)N1CCN(C(=O)C2CC2)CC1 [Olaparib] (first compound max 1 µM, 7x7, partner max 10 µM) | – | -0.0874 | – | – | 0.566 | 0.789 | 0.885 | – |
| COc1cccc(OCCCN)c1-c1cc(Nc2cnc(C#N)cn2)n[nH]1 [Prexasertib] + Cc1cc2ncnn2cc1Nc1ncc2c(n1)n(C1CCOCC1)c(=O)n2C [AZD7648] (first compound max 1 µM, 7x7, partner max 10 µM) | – | -0.0498 | – | – | 0.508 | 0.947 | 0.94 | – |
